Assay results: article PMC6421539, “Discovery of Soft-Drug Topical Tool Modulators of Sphingosine-1-phosphate Receptor 1 (S1PR1)” (ACS Medicinal Chemistry Letters, 2019)
“Also recorded” adds a separate entry of the source. Read-outs that look alike come from different tables or passages of the source.

Experiments:
[1] = Chemical stability in DMSO solution; assay type: physicochemical; conditions: for stability (% decrease in purity): Table 2, stored in DMSO solution for 28 days; for stability (% decrease in purity) / stability (% decrease): n = 1; for isomerization / hydrolysis / chemical instability in DMSO solution (in words): 28 days; for stability (% decrease): Table 3, % loss in purity when stored in DMSO solution for 28 days
From the text: Although several compounds shown in Table 2 satisfy the rapid clearance requirements of a soft drug and retain primary activity, none were suitable for progression into in vivo studies due to chemical stability liabilities. […] The instability in solution represented a major development hurdle as topical drugs are usually stored in solution or suspensions (cream, ointment, paste, lotion, or gels), rather than in solid form, as is the case for oral drugs. We turned our attention to identifying the impurity and preventing its formation.
Decomposition studies used ^1H NMR to monitor the increase in the acetic acid methyl group peak over 28 days (see Supporting Information). […] However, the chemical stability was poor when heteroatoms were alpha to the carbonyl of the acetate group 10d,e, and these compound degraded on standing within 24 h, preventing full characterization.

[2] = CHI logD by reverse-phase HPLC; assay type: physicochemical; conditions: compared to 4a
[3] = NMR study of isomerisation after incubation in DMSO-d6 for 6 months; assay type: physicochemical; conditions: 1H NMR integration
From the text: The NOESY spectrum of the mixture indicated no changes in the arrangement of the imine (no correlation was observed between H^11–H^19 or H^11′–H^19′).

[4] = Human liver hepatocyte stability, intrinsic clearance; assay type: in vitro ADME
Procedure: the exponential decay and consequently the rate constant (k) from the ratio of peak area of test compound to internal standard at each timepoint. The rate of intrinsic clearance (CLi) of each test compound was then calculated using the following calculation:
CLi (mL/min/g liver) = k x V x Microsomal protein yield
Where V (mL/mg protein) is the incubation volume/mg protein added and microsomal protein yield is taken as 52.5 mg protein per g liver. Verapamil (0.5 μM) was used as a positive control to confirm acceptable assay performance. Experiments were performed using a single timecourse experiment.
All values reported correspond to n of 1.
Human Liver Hepatocyte (HLH) stability experiments
Cryopreserved vials of human cryopreserved hepatocytes, supplied by Life Technologies, were thawed according to manufacturer’s instructions and cells resuspended in Williams Medium E (WME) containing cell maintenance supplement pack (CM4000, Life Technologies). Hepatocytes were incubated in suspension (0.5 million cells/mL) in 48 well non-collagen coated cell culture plates for 10 minutes at 37 °C, 5% CO 2. […] The response (area ratio of test compound to internal standard) was plotted against time using an exponential decay model and rate of disappearance calculated. […]
The half life (T½) of each test compound was determined using the following equation: […]

[5] = Topical pharmacokinetic experiment in mice; assay type: in vivo; conditions: for Mean concentration in blood: female Balb/c mice, topical 10a 1% w/v, n=3, LLoQ = 1 ng/mL, scaled LLoQ 10 ng/mL; for concentration at 2 h / concentration at 8 h: female, Balb/c, mouse, 22.5 µL of 1% w/v 10a; for concentration at 2 h / concentration at 8 h / concentration in blood: mice, topical 22.5 μL of 1% 10a in propylene glycol/ethanol 7/3
[6] = Metabolite identification in human hepatocytes; assay type: in vitro ADME; conditions: n = 1
From the text: (§1) Based on the stability of (Z,Z)-9k in DMSO over 28 days (Table 2), it is likely this hydrolysis is enzymatically driven. We then performed metabolite identification studies using (Z,Z)-9k in human hepatocytes to confirm the routes of clearance of our S1PR1 modulators.

[7] = Metabolite identification in human skin S9 fraction; assay type: in vitro ADME; conditions: incubation with human skin S9 fraction; n = 1
From the text: as §1

[8] = Glutathione trapping experiment in human liver microsomes; assay type: in vitro ADME; conditions: 10 µM, 90 minutes
Procedure: Concentration (ng/mL) Scaled concentration (ng/mL) Mean concentration […]
Mouse 1 Mouse 2 Mouse 3 Mouse 1 Mouse 2 Mouse 3
2h-post application < LLoQ < LLoQ < LLoQ < LLoQ < LLoQ < LLoQ < LLoQ […]
Mouse 4 Mouse 5 Mouse 6 Mouse 4 Mouse 5 Mouse 6
8h-post application < LLoQ < LLoQ < LLoQ < LLoQ < LLoQ < LLoQ < LLoQ […]
Scaled LLoQ = dilution factor * LLoQ = 10*1 = 10 ng/mL
Skin concentrations for 10a
Test compound (10 µM) was incubated with 0.5 mg/mL human liver microsomes (Mixed Gender, Life Technologies) in 50 mM potassium phosphate buffer, pH 7.4 in the presence of either NADPH (8mg/mL) alone, glutathione alone or NADPH plus glutathione. Reactions are initiated by addition of 5 µL of 1 mM test compound (final concentration 10 µM, 1% solvent). Immediately, an aliquot (100 µL) of the incubation mixture was removed and mixed with acetonitrile (200 µL) to stop the reaction. A further 100 µL aliquot is removed at 90 minutes. After addition of 100 µL of water, the samples were centrifuged to sediment precipitated protein and the plates then sealed prior to analysis using a Xevo QTof Quadrupole Time-of-Flight Mass Spectrometer (Waters corporation, USA). Detection of metabolites is performed by analysis with MetabolynxXS and by manual data
(1 picture or pasted object on this page, not shown here)

[9] = set-up: method as in PMID 20089952; conditions: 0.5 mg/day; cited from earlier work

In the case of `CCC/N=C1\S/C(=C\c2ccc(O)c(Cl)c2)C(=O)N1c1ccccc1C` [Compound 4a], the “stability (% decrease in purity)” value [1] is reported as 6%.

For `CCC/N=C1\S/C(=C\c2ccc(O)c(Cl)c2)C(=O)N1C1CCN(C)C(=O)C1` (stereo not drawn) [Compound 4f], the “reduction in CHIlogD” value [2] was 3 log units.

With `CCC/N=C1\S/C(=C\c2ccc(O)c(Cl)c2)C(=O)N1c1ccccc1O` [Compound 4h] the “reduction in CHIlogD” value [2] was 1.1 log units.

With `CCC/N=C1\S/C(=C\c2ccc(O)c(Br)c2)C(=O)N1c1ccccc1C` [Compound 9f] the “stability (% decrease in purity)” value [1] was 16%.

For `CCC/N=C1\S/C(=C\c2ccc(O)c(C(F)(F)F)c2)C(=O)N1c1ccccc1C` [Compound 9g], the “stability (% decrease in purity)” value [1] was 10%.

With `CCC/N=C1\S/C(=C\c2ccc(O)c(C#N)c2)C(=O)N1c1ccccc1C` [Compound 9h] the “stability (% decrease in purity)” value [1] was 20%, the “impurity (E isomer) share of the mixture” value [3] was 32% and the “H Heps Cl (intrinsic clearance in human liver hepatocytes)” value ([4]; 0.5 μM test compound, n = 1) was under 0.5 mL/min/g.

With `CCC/N=C1\S/C(=C\c2ccc(O)cn2)C(=O)N1c1ccccc1C` [Compound 9i] the “stability (% decrease in purity)” value [1] was 4%.

With `CCC/N=C1\S/C(=C\c2ccc(O)cc2)C(=O)N1c1ccccc1C` [Compound 9j] the “isomerization / hydrolysis / chemical instability in DMSO solution (in words)” value [1] was “stable over a 28-day period” and the “stability (% decrease in purity)” value [1] was 0%.

In the case of `CCC/N=C1\S/C(=C\c2ccc(O)c(C)c2)C(=O)N1c1ccccc1C` [Compound 9k], the “Mean concentration in blood” value ([5]; 2h-post application) is reported as “< LLoQ”, the “Mean concentration in blood” value ([5]; 8h-post application) is reported as “< LLoQ” and the concentration at 2 h ([5]; skin, 2 h, read-out: concentration in the skin) is reported as 134 µM. For the same compound, the concentration at 8 h ([5]; skin, 8 h, read-out: concentration in the skin) was 101 µM, the concentration in blood ([5]; 2 h) was “LLoQ” and the concentration in blood ([5]; 8 h) was “LLoQ”. For the same compound, the metabolites identified [6] was “glucuronide conjugation product, hydroxylation products, and hydroxylation with sulfation metabolites”, the “stability (% decrease in purity)” value [1] was 3% and the “hepatic clearance as % liver blood flow” value ([4]; corresponds to intrinsic clearance 31 mL/min/g, if good in vitro to in vivo correlation) was 97 % liver blood flow.

In the case of `CCC/N=C1\S/C(=C\c2ccc(O)c(C(C)C)c2)C(=O)N1c1ccccc1C` [Compound 9l], the “stability (% decrease in purity)” value [1] is reported as 3%.

With `CCC/N=C1\S/C(=C\c2ccc(OC(C)=O)c(C)c2)C(=O)N1c1ccccc1C` [Compound 10a] the “Mean concentration in blood” value ([5]; 2h-post application) was “< LLoQ”, the “Mean concentration in blood” value ([5]; 8h-post application) was “< LLoQ” and the concentration at 2 h ([5]; whole blood, 2 h, read-out: concentrations in blood) was 8.8 µM. The concentration at 8 h ([5]; whole blood, 8 h, read-out: concentrations in blood) was 4.9 µM, the concentration in blood ([5]; 2 h) was “LLoQ” and the concentration in blood ([5]; 8 h) was “LLoQ”. For the same compound, the “isomerization / hydrolysis / chemical instability in DMSO solution (in words)” value [1] was “did not isomerize; also recorded: no hydrolysis or isomerization”, the “stability (% decrease)” value [1] was 0% and the metabolites identified [7] was “expected phenol (Z,Z)-9k was obtained after hydrolysis of the ester group: no other metabolites were observed”. For the same compound, the “glutathione adducts or derivatives” value [8] was “no evidence of glutathione adducts or derivatives was observed”.

For `CCC/N=C1\S/C(=C\c2ccc(OC(C)=O)c(Br)c2)C(=O)N1c1ccccc1C` [Compound 10b], the “stability (% decrease)” value [1] was 6.3%.

For `CCC/N=C1\S/C(=C\c2ccc(OC(C)=O)c(C(F)(F)F)c2)C(=O)N1c1ccccc1C` [Compound 10c], the “stability (% decrease)” value [1] was 1.4%.

With `CCC/N=C1\S/C(=C\c2ccc(OC(=O)COC)c(C)c2)C(=O)N1c1ccccc1C` [Compound 10d] the “time within which compound degraded on standing” value ([1]; heteroatom alpha to the carbonyl of the acetate group) was at most 24 h.

In the case of `CCC/N=C1\S/C(=C\c2ccc(OC(=O)CCO)c(C)c2)C(=O)N1c1ccccc1C` [Compound 10f], the “isomerization / hydrolysis / chemical instability in DMSO solution (in words)” value [1] is reported as “did not isomerize; also recorded: instability was not an issue” and the “stability (% decrease)” value [1] is reported as 0%.

In the case of `CCC/N=C1\S/C(=C\c2ccc(OC(=O)CCOC)c(C)c2)C(=O)N1c1ccccc1C` [Compound 10g], the “isomerization / hydrolysis / chemical instability in DMSO solution (in words)” value [1] is reported as “instability was not an issue”.

In the case of `CCCCCCCCc1ccc(CCC(N)(CO)CO)cc1` [fingolimod], the “steady state systemic concentration Cmax” value [9] is given as 3.1 ng/mL.

In the case of `CCC/N=C1\S/C(=C\c2ccc(OC[C@H](O)CO)c(Cl)c2)C(=O)N1c1ccccc1C` [ponesimod, reference compound], the “stability (% decrease)” value [1] is reported as 0%.
